Assay results reported in patent publication US20240408096A1, “DOSING REGIMENS FOR ORAL ALK2 KINASE INHIBITORS” (BioCryst Pharmaceuticals, Inc., priority 2020, published 2024).
Residue numbers refer to the chain shown, from its start.

Assays:
ALK2(R206H) = target: T1, ALK2(R206H) (Homo sapiens, UniProt Q04771, R206H); assay: ALK2(R206H) functional assays; type: biochemical; settings: several functional assays; read-out: ALK2(R206H) activity potency (IC50)
T1 sequence (Q04771 21-509 R206H): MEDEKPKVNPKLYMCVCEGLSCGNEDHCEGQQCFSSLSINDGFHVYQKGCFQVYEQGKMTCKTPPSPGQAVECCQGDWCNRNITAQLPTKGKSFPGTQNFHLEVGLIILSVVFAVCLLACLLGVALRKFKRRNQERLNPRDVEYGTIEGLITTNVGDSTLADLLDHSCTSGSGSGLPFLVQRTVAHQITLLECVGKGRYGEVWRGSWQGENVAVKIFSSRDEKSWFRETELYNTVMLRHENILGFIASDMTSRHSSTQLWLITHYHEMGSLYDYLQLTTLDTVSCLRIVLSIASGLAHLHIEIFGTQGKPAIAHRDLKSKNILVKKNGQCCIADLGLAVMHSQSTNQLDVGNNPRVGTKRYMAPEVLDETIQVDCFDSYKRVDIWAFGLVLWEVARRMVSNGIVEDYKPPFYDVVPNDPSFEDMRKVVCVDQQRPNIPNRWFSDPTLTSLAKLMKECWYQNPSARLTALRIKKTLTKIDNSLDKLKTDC

wtALK2 = target: T2, wtALK2 (Homo sapiens, UniProt Q04771); assay: wtALK2 functional assays; type: biochemical; settings: several functional assays; read-out: wtALK2 activity potency (IC50)
T2 sequence (Q04771 21-509): T1 sequence (Q04771 21-509 R206H) with H186R

[1] = test system: G-protein coupled receptor (GPCRs) related kinases; assay: off-target screening study
[2] = ECG / QTc after oral administration to dogs; type: in vivo, dog; settings: HEDs up to 667 mg based on a 60 kg subject
cytochrome P450 (CYP)1A2 = target: T3, cytochrome P450 (CYP)1A2 (Homo sapiens, UniProt P05177); assay: CYP inhibition in vitro; type: in vitro ADME
T3 sequence (P05177 1-516): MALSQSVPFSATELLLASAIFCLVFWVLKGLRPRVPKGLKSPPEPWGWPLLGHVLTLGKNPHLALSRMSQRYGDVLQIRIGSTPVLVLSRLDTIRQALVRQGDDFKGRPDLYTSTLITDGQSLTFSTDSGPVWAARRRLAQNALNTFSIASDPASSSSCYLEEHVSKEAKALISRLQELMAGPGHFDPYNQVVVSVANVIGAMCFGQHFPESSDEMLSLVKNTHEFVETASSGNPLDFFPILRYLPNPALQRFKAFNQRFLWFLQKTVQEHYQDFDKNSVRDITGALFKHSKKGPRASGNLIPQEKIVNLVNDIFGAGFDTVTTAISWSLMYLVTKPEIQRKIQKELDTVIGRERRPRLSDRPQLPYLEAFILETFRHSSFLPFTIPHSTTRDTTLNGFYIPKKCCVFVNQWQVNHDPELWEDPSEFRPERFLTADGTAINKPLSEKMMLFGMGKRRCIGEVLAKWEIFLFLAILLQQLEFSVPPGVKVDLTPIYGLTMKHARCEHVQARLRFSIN

CYP2B6 = target: T4, CYP2B6 (Homo sapiens, UniProt P20813); assay: CYP inhibition in vitro; type: in vitro ADME
T4 sequence (P20813 1-491): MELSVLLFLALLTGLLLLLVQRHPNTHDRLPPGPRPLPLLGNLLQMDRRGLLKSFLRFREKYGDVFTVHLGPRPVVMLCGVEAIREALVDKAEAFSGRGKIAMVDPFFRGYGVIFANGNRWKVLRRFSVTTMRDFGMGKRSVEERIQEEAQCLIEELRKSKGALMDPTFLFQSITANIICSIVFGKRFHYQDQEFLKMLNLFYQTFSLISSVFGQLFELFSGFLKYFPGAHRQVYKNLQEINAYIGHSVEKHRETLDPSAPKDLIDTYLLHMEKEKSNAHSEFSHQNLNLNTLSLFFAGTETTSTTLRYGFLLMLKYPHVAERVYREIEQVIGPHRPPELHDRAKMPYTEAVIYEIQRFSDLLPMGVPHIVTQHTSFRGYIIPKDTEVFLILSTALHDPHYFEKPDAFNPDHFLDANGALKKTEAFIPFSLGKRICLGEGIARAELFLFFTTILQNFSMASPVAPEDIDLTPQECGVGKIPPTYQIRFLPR

CYP2E1 = CYP2E1 (Homo sapiens, UniProt P05181); assay: CYP inhibition in vitro; type: in vitro ADME
[3] = Phase 1 Parts 1 and 2 Holter ECG pharmacodynamics / exposure-response; type: in vivo, human
Method: ECGs were obtained according to the schedule in Tables 4 and 5 for Parts 1 and 2, respectively. A standard bedside 12-lead ECG machine or telemetry system that calculates HR and measures the PR, QRS, QT, RR, and QTc (QTcF) intervals was used. The acceptable deviations from the nominal ECG measurement time points were: re-dose: ≤2 hours before dosing; post dose: ±15 minutes from the nominal post-dose time point; and discharge: ±1 hour from the nominal time point.
Where possible, Holter-obtained and adjudicated ECGs were used to determine the change from baseline in mean differences in QTcF between each active treatment chosen to be analyzed relative to that obtained on subjects receiving placebo within a study part (for Part 2, within each cohort). At each time point Holter ECGs are analyzed, an individual subject's change from baseline will be calculated as:
Δik=(QTcF for subject I at time point k−Baseline QTcF), where QTcF measurements will be the average of triplicate ECGs at each time point. Baseline QTcF is the average of all pre-dose values.

[4] = Parts 1 and 2, model included placebo

Chain of CYP2E1 (P05181 whole entry): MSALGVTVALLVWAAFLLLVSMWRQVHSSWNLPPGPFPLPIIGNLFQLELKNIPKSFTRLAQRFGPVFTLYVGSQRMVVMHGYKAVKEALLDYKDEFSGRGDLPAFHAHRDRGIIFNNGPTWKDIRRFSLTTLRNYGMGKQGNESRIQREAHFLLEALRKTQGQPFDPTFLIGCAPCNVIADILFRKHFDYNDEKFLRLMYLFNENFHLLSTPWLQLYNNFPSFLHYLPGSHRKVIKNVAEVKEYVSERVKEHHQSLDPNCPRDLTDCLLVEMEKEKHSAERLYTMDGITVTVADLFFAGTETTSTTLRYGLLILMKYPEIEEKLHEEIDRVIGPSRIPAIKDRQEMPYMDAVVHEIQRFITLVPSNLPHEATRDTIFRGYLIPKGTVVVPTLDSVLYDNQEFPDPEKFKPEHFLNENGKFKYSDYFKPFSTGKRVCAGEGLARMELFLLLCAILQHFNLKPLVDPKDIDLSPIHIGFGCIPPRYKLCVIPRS

COc1cc(-n2cnc(Nc3nc(N4CCC[C@H]4C(N)=O)nc4sccc34)c2)cc(OC)c1OC.O=C(O)CC(O)(CC(=O)O)C(=O)O [Compound A]
IC50 (ALK2(R206H)): < 100 nM | IC50 (wtALK2): < 100 nM | off-target effects [1]: minimal off-target effects | prolongation of corrected QT interval (QTc) or other ECG changes [2]: did not induce prolongation of corrected QT interval (QTc) | CYP1A2 inhibition (cytochrome P450 (CYP)1A2): not an inhibitor | CYP2B6 inhibition (CYP2B6): not an inhibitor | CYP2E1 inhibition (CYP2E1): not an inhibitor | slope of ΔQTcF-concentration model ([3]; Parts 1 and 2): 0.0002 | ΔQTcF-concentration model fit line and confidence boundaries ([3]; Parts 1 and 2): below 10 msec | slope of ΔHR-concentration model [3, 4]: 0.0004 | slope of ΔPR-concentration model [3, 4]: −0.0033 | slope of ΔQRS-concentration model [3, 4]: 0.0004 | model predicted HR changes ([3]; at all concentrations): < 1 bpm | model predicted PR changes ([3]; at all concentrations): less than 2 msec | effect on the ECG (12-lead Holter monitoring) ([3]; single doses up to 25 mg and multiple daily doses over 7 days up to 20 mg): absence of a clinically significant effect
